From patent US12465614B2, “Budesonide 21-phosphate salts and pharmaceutical compositions containing the same” (GENETIC S.P.A., priority 2020, dated 2025)

Experiments:
[1] = system: mice with OVA-induced allergic asthma; assay: Lung hyperreactivity/Penh function, intra-nasal Bud vs Bud-21 P (Experimental Groups III); assay type: in vivo; conditions: for Penh maximal response (Emax) / area under the Penh-metacholine concentration curve (AUC): 4 weeks
Procedure: Male Balb/c SPF mice (25*2 g, 6-week-old) were purchased from the animal house facilities at the São Paulo School of Medicine (Federal University of São Paulo, Brazil). They were group-housed in a temperature-controlled room at 22° C. with a 12/12-hour light/dark cycle and allowed free access to food and water. The study is in agreement with the Ethical Principles for Animal Research established by the Brazilian College for Animal Experimentation (COBEA). According to the internal laboratory rules, euthanasia is performed if severe distress related to the test agents developed during the experiment. In Protocol 3, the test compounds budesonide (Bud; MW: 430.53 g/mol) and budesonide 21-phosphate free acid (Bud-21 P; […] The compounds were dissolved in 10% sterile saline+90% DMSO (Sigma Chemical Co., St. Louis, MO) at the correspondent concentrations at which the above mentioned doses per animal result from the intra-nasal (i.n.) administration of 10 μl/animal (5 μl/nostril) of each of the solutions. Mice were sensitized with two subcutaneous injections of 0.4 ml of OVA/Al(OH)3, with an interval of 7 days (Sham animals received the Al(OH)3 suspension in PBS with no OVA). Seven days after the second sensitization (i.e., 3rd week), the animals were nebulized twice a week with the 1% OVA solution (Sham and untreated OVA groups were nebulized with PBS) during 20 minutes for the next 2 weeks. Sixty minutes before the challenges (OVA nebulization) and daily during the next 4 weeks, mice were intra-nasally treated (10 μl/animal as 5 μl/nostril) with the respective compounds/vehicle. Airway responsiveness in conscious, spontaneously breathing animals was measured at the end of the 4th week (i.e., after 2 weeks of OVA challenges+treatments), 24 h after the last OVA/PBS challenge via whole body plethysmography (Buxco Europe Ltd, Winchester, UK), as previously described. Experiments were carried out in a quiet room by an investigator who was unaware of the nature of treatments. Aerosolized saline (50 μl/mouse during 60 s) and then the muscarinic agonist metacholine (MCh) at increasing concentrations (3.12, 6.25, 12.5 and 25.0 mg/ml in PBS) was nebulized through an inlet of the main chamber for 3 min each to induce bronchoconstriction and readings were taken and averaged for 6 min following each nebulization. After 20 min, the baseline values usually returned at the end of this period. Enhanced pause (Penh) was measured as an indicator of bronchoconstriction and consequent increase of airway resistances: Penh=[(expiration time/relaxation time)−1][…](maximum expiration flow/maximum inspiration flow)

[2] = system: compound 48/80 (C48/80)-induced skin edema in mice; assay: Cutaneous edema: C48/80-induced plasma extravasation, Evans blue method (Experimental Groups IV); assay type: in vivo; conditions: for C48/80-induced edema: 0.70 μmol/kg i.p. (0.30 mg/kg Bud, 0.36 mg/kg Bud 21-P); for reduction of C48/80-induced plasma extravasation: 2.32 μmol/kg i.p. (1.0 mg/kg Bud, 1.2 mg/kg Bud 21-P), 60 min before i.d. C48/80
Procedure: Male C57Bl/6 SPF mice (25±2 g, 6-week-old) were purchased from the animal house facilities at the São Paulo School of Medicine (Federal University of São Paulo, Brazil). They were group-housed in a temperature-controlled room at 22° C. with a 12/12-hour light/dark cycle, had free access to food and water and were allowed to acclimate to our local facility for one week before the start of the experimental procedures. The study agrees with the Ethical Principles for Animal Research established by the Brazilian College for Animal Experimentation (COBEA). According to the internal laboratory rules, euthanasia is performed if severe distress related to the test agents developed during the experiment.
In Protocol 4, Bud (at doses of 1.0 and 0.30 mg/kg) and Bud 21-P (at doses of 1.2 and 0.36 mg/kg) were administered on a molar base, these doses were equivalent to […] μmol/kg of each compound, respectively. The vehicle for dissolution of the compounds was sterile saline solution (0.9% NaCl) containing 12.5% DMSO (Sigma Chemical Co., St. Louis, MO). The compound solutions were prepared at concentrations such that the administered dose per kg of body weight results from the intraperitoneal (i.p.) administration of 10 ml/kg of each of the solutions.
Skin edema was assessed in mice according to the method previously described by Costa et al. (2006) and Yshii et al (2009). The mice were anesthetized with urethane (25% w/v, 10 ml/kg, i.p.), had their dorsal skin shaved, and thereafter i.p. treated with the vehicle/test compounds. Fifty-five minutes later, a volume of 100 μL of Evans blue dye solution (0.25% in sterile saline) was intravenously (i.v.) injected via the tail vein. Five minutes later, the BK and C48/80 were intradermally (i.d.) injected into the dorsal skin at a fixed volume of 50 μl using a randomized scheme. The same volume of Tyrode solution 50 μl was injected as a control. Thirty minutes later, a 1 ml blood sample was obtained via cardiac puncture and the mice were killed by urethane overdose followed by cervical dislocation. The blood samples were centrifuged at 6,000 g for 4 min to obtain the plasma. […] The dye was extracted from each piece of skin and plasma (100 μl) samples using formamide, and the absorbance of the resulting solutions was measured at 620 nm. The plasma extravasation due to each agent (expressed in μl/site) was calculated as the ratio between the absorbance of each respective skin piece, corrected by the blank value and plasma sample solutions, properly adjusted by the dilution factors. To homogenate data due to the variability of different group of animals (inter-group variations), edema data are expressed as the fold-change response relative to the mean Tyrode (control) response of each experiment.

[3] = all tested doses (3, 10 and 30 nmol/animal/day) i.n.
[4] = highest dose 30 nmol/animal/day i.n.

Row | Compound | Penh maximal response (Emax) [1, 3] | area under the Penh-metacholine concentration curve (AUC) [1, 3] | C48/80-induced edema [2] | reduction of C48/80-induced plasma extravasation [2] | beneficial effect on bronchoconstriction response to methacholine (Penh function) ([1]; 3 and 10 nmol/animal/day i.n.) | Penh maximal response (Emax) [1, 4] | area under the Penh-metacholine concentration curve (AUC) [1, 4]
1 | CCCC1OC2CC3C4CCC5=CC(=O)C=CC5(C)C4C(O)CC3(C)C2(C(=O)COP(=O)(O)O)O1 (stereo not drawn) [B, Budesonide 21-phosphate] | significantly reduced | significantly reduced | significantly inhibited C48180-induced edema | approximately 50% | – | – | –
2 | CCCC1OC2CC3C4CCC5=CC(=O)C=CC5(C)C4C(O)CC3(C)C2(C(=O)CO)O1 (stereo not drawn) [Bud, 11β,21-dihydroxy-16α,17α-(butylidenebis(oxy))pregna-1,4-diene-3.20-dione] | – | – | ineffective | approximately 50% | absent | significant reduction of this response just at the highest dose | significant reduction of this response just at the highest dose
